Measured values from patent US20230040770A1, “HETEROCYCLIC COMPOUND AND USE THEREOF” (TAKEDA PHARMACEUTICAL COMPANY LIMITED, priority 2019, published 2023).

Target: T1, human orexin type 2 receptor (Homo sapiens, UniProt O43614)
T1 construct: expressed in transfected cells
T1 sequence (O43614 1-444): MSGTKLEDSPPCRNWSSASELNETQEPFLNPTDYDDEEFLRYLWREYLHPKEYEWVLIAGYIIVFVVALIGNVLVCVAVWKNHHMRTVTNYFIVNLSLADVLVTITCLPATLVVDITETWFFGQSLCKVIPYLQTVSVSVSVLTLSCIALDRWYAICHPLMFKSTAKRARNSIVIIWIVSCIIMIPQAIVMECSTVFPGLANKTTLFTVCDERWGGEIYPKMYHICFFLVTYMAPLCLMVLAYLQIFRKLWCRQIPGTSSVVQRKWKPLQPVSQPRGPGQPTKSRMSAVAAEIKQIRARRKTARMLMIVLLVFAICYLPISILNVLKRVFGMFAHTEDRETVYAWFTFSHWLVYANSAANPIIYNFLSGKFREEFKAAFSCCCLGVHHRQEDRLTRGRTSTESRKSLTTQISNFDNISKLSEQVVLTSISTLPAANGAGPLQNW
Test: Measurement of orexin type 2 receptor agonist activity (calcium indicator fluorescence, CHO cells forcibly expressing human OX2 receptor)
Assay type: cell-based
Details: compound at 3 μM; 0% = DMSO, 100% = orexin A (human) 10 nM
Procedure, shortened: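 Agonist response normalised between vehicle (0%) and orexin A at 10 nM final (100%), from kinetic Fluo-4 calcium signals recorded for about 2 min after compound addition. Cells: stable human OX2R CHO clone, dye-loaded 30 min at 37 °C plus 30 min at room temperature.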

OX2R agonist activity (3 μM, %) [%]	Compound
92	O=C(C1CCO1)N1CC(F)(F)[C@H](NS(=O)(=O)C2CC2)[C@@H]1Cc1cccc(-c2cccc(F)c2)c1F (stereo partly drawn) [Example 129, N-[(2S,3R)-2-[(2,3′-difluoro[1,1′-biphenyl]-3-yl)methyl]-4,4-difluoro-1-(oxetane-2-carbonyl)pyrrolidin-3-yl]cyclopropanesulfonamide]
100	CCS(=O)(=O)N[C@@H]1[C@H](Cc2cccc(-c3cccc(F)c3)c2F)N(C(=O)[C@H]2C[C@@H](F)C2)CC1(F)F [Example 226, N-[(2S,3R)-2-[(2,3′-difluoro[1,1′-biphenyl]-3-yl)methyl]-4,4-difluoro-1-((1s,3R)-3-fluorocyclobutane-1-carbonyl)pyrrolidin-3-yl]ethanesulfonamide]
100	CCS(=O)(=O)N[C@@H]1[C@H](Cc2cccc(-c3cc(F)c(F)c(F)c3)c2F)N(C(=O)C2CCO2)CC1(F)F (stereo partly drawn) [Example 475, N-{(2S,3R)-4,4-difluoro-1-(oxetane-2-carbonyl)-2-[(2,3′,4′,5′-tetrafluoro[1,1′-biphenyl]-3-yl)methyl]pyrrolidin-3-yl}ethanesulfonamide]
99	CCS(=O)(=O)N[C@@H]1[C@H](Cc2cccc(-c3ccccc3)c2)N(C(=O)C2CCO2)CC1(F)F (stereo partly drawn) [Example 51, N-[(2S,3R)-2-[([1,1′-biphenyl]-3-yl)methyl]-4,4-difluoro-1-(oxetane-2-carbonyl)pyrrolidin-3-yl]ethanesulfonamide]
95	CCS(=O)(=O)N[C@@H]1[C@H](Cc2cccc(-c3cccc(F)c3F)c2)N(C(=O)C2CCO2)CC1(F)F (stereo partly drawn) [Example 175, N-[(2S,3R)-2-[(2′,3′-difluoro[1,1′-biphenyl]-3-yl)methyl]-4,4-difluoro-1-(oxetane-2-carbonyl)pyrrolidin-3-yl]ethanesulfonamide]
103	CS(=O)(=O)N[C@@H]1[C@H](Cc2cccc(-c3cccc(Cl)c3F)c2F)N(C(=O)C2CCO2)CC1(F)F (stereo partly drawn) [Example 263, N-[(2S,3R)-2-[(3′-chloro-2,2′-difluoro[1,1′-biphenyl]-3-yl)methyl]-4,4-difluoro-1-(oxetane-2-carbonyl)pyrrolidin-3-yl]methanesulfonamide]

More lines, now with the values behind:

Compound	OX2R agonist activity (3 μM, %) [%]
CS(=O)(=O)N[C@@H]1[C@H](Cc2cccc(-c3cc(F)ccc3F)c2F)N(C(=O)[C@H]2CCO2)CC1(F)F [Example 122, N-{(2S,3R)-4,4-difluoro-1-((2R)-oxetane-2-carbonyl)-2-[(2,2′,5′-trifluoro[1,1′-biphenyl-]-3-yl)methyl]pyrrolidin-3-yl}methanesulfonamide]	89
CS(=O)(=O)N[C@H]1[C@@H](F)CN(C(=O)C2CCO2)[C@H]1Cc1cccc(-c2cccc(Cl)c2)c1F (stereo partly drawn) [Example 328, N-[(2S,3R,4S)-2-[(3′-chloro-2-fluoro[1,1′-biphenyl]-3-yl)methyl]-4-fluoro-1-(oxetane-2-carbonyl)pyrrolidin-3-yl]methanesulfonamide]	86
CCS(=O)(=O)N[C@H]1[C@@H](F)CN(C(=O)C2CC2)[C@H]1Cc1cccc(-c2cccc(Cl)c2)c1F [Example 516, N-[(2S,3R,4S)-2-[(3′-chloro-2-fluoro[1,1′-biphenyl]-3-yl)methyl]-1-(cyclopropanecarbonyl)-4-fluoropyrrolidin-3-yl]ethanesulfonamide]	102
CN(C)C(=O)N1CC(F)(F)[C@H](NS(=O)(=O)C2CC2)[C@@H]1Cc1cccc(-c2cc(F)cc(F)c2)c1F [Example 524, (2S,3R)-3-[(cyclopropanesulfonyl)amino]-4,4-difluoro-N,N-dimethyl-2-[(2,3′,5′-trifluoro[1,1′-biphenyl]-3-yl)methyl]pyrrolidine-1-carboxamide]	87
CC(C)C(=O)N1CC(F)(F)[C@H](NS(C)(=O)=O)[C@@H]1Cc1cccc(-c2ccccc2)c1F [Example 77, N-[(2S,3R)-4,4-difluoro-2-[(2-fluoro[1,1′-biphenyl]-3-yl)methyl]-1-(2-methylpropanoyl)pyrrolidin-3-yl]methanesulfonamide]	95
O=C(C1CC1)N1C[C@H](F)[C@H](NS(=O)(=O)C2CC2)[C@@H]1Cc1cccc(-c2cccc(F)c2F)c1F [Example 377, N-{(2S,3R,4S)-1-(cyclopropanecarbonyl)-4-fluoro-2-[(2,2′,3′-trifluoro[1,1′-biphenyl]-3-yl)methyl]pyrrolidin-3-yl}cyclopropanesulfonamide]	95
CC(C)(O)C(=O)N1CC(F)(F)[C@H](NS(C)(=O)=O)[C@@H]1Cc1cccc(-c2ccccc2)c1F [Example 4, N-[(2S,3R)-4,4-difluoro-2-[(2-fluoro[1,1′-biphenyl]-3-yl)methyl]-1-(2-hydroxy-2-methylpropanoyl)pyrrolidin-3-yl]methanesulfonamide]	101
CCS(=O)(=O)N[C@H]1[C@@H](F)CN(C(=O)C2CCO2)[C@H]1Cc1cccc(-c2cc(F)cc(F)c2)c1F (stereo partly drawn) [Example 305, N-{(2S,3R,4S)-4-fluoro-1-(oxetane-2-carbonyl)-2-[(2,3′,5′-trifluoro[1,1′-biphenyl]-3-yl)methyl]pyrrolidin-3-yl}ethanesulfonamide]	103
CCS(=O)(=O)N[C@@H]1[C@H](Cc2cccc(-c3ccccc3)c2F)N(C(=O)C2(O)CCC2)CC1(F)F [Example 23, N-[(2S,3R)-4,4-difluoro-2-[(2-fluoro[1,1′-biphenyl]-3-yl)methyl]-1-(1-hydroxycyclobutane-1-carbonyl)pyrrolidin-3-yl]ethanesulfonamide]	100
CCS(=O)(=O)N[C@@H]1[C@H](Cc2cccc(-c3cc(F)ccc3F)c2F)N(C(=O)[C@H]2C[C@H](F)C2)CC1(F)F [Example 376, N-{(2S,3R)-4,4-difluoro-1-((1r,3S)-3-fluorocyclobutane-1-carbonyl)-2-[(2,2′,5′-trifluoro[1,1′-biphenyl]-3-yl)methyl]pyrrolidin-3-yl}ethanesulfonamide]	99
O=C(C1CCO1)N1C[C@H](F)[C@H](NS(=O)(=O)C2CC2)[C@@H]1Cc1cccc(-c2cccc(Cl)c2)c1F (stereo partly drawn) [Example 497, N-[(2S,3R,4S)-2-[(3′-chloro-2-fluoro[1,1′-biphenyl]-3-yl)methyl]-4-fluoro-1-(oxetane-2-carbonyl)pyrrolidin-3-yl]cyclopropanesulfonamide]	91
CC(C)C(=O)N1CC(F)(F)[C@H](NS(=O)(=O)C2CC2)[C@@H]1Cc1cccc(-c2cc(F)cc(F)c2)c1F [Example 166]	98
CCS(=O)(=O)N[C@H]1[C@@H](F)CN(C(=O)C2CC2)[C@H]1Cc1cccc(-c2cc(C)cc(F)c2)c1F [Example 515, N-{(2S,3R,4S)-1-(cyclopropanecarbonyl)-2-[(2,3′-difluoro-5′-methyl[1,1′-biphenyl]-3-yl)methyl]-4-fluoropyrrolidin-3-yl}ethanesulfonamide]	98
CCS(=O)(=O)N[C@H]1[C@@H](F)CN(C(=O)[C@H]2CCCO2)[C@H]1Cc1cccc(-c2cc(F)ccc2F)c1F [Example 416, N-{(2S,3R,4S)-4-fluoro-1-[(2R)-oxolane-2-carbonyl]-2-[(2,2′,5′-trifluoro[1,1′-biphenyl]-3-yl)methyl]pyrrolidin-3-yl}ethanesulfonamide]	101
